Assay results reported in PubChem BioAssay AID1259407 (Chemical Carcinogenesis Research Information System (CCRIS), 2018).
Activity calls are given as the source filed them. The rule behind the calls is not given here.

Test system: CCRIS mutagenicity, Ames/micronucleus/aberration tests
Assay: CCRIS mutagenicity studies
[1] = Test System: AMES SALMONELLA TYPHIMURIUM, Strain/Indicator: TA98, Metabolic Activation: NONE, Method: PREINCUBATION
[2] = Test System: AMES SALMONELLA TYPHIMURIUM, Strain/Indicator: TA100, Metabolic Activation: NONE, Method: PREINCUBATION
[3] = Test System: AMES SALMONELLA TYPHIMURIUM, Strain/Indicator: TA98, Metabolic Activation: NONE, Method: STANDARD PLATE
[4] = Test System: AMES SALMONELLA TYPHIMURIUM, Strain/Indicator: TA100, Metabolic Activation: NONE, Method: STANDARD PLATE

SMILES: Cc1ccc(OP(=O)(Oc2ccc(C)cc2C)Oc2ccc(C)cc2C)c(C)c1
- mutagenic call (Test System: AMES SALMONELLA TYPHIMURIUM, Strain/Indicator: TA98, Metabolic Activation: HAMSTER, LIVER, S-9, AROCLOR 1254 (10%), Method: PREINCUBATION): inactive; negative
- mutagenic call [1]: inactive; negative
- mutagenic call (Test System: AMES SALMONELLA TYPHIMURIUM, Strain/Indicator: TA98, Metabolic Activation: RAT, LIVER, S-9, AROCLOR 1254 (10%), Method: PREINCUBATION): inactive; negative
- mutagenic call (Test System: AMES SALMONELLA TYPHIMURIUM, Strain/Indicator: TA100, Metabolic Activation: HAMSTER, LIVER, S-9, AROCLOR 1254 (10%), Method: PREINCUBATION): inactive; negative
- mutagenic call [2]: inactive; negative
- mutagenic call (Test System: AMES SALMONELLA TYPHIMURIUM, Strain/Indicator: TA100, Metabolic Activation: RAT, LIVER, S-9, AROCLOR 1254 (10%), Method: PREINCUBATION): inactive; negative
- mutagenic call (Test System: AMES SALMONELLA TYPHIMURIUM, Strain/Indicator: TA1535, Metabolic Activation: HAMSTER, LIVER, S-9, AROCLOR 1254 (10%), Method: PREINCUBATION): inactive; negative
- mutagenic call (Test System: AMES SALMONELLA TYPHIMURIUM, Strain/Indicator: TA1535, Metabolic Activation: NONE, Method: PREINCUBATION): inactive; negative
- mutagenic call (Test System: AMES SALMONELLA TYPHIMURIUM, Strain/Indicator: TA1535, Metabolic Activation: RAT, LIVER, S-9, AROCLOR 1254 (10%), Method: PREINCUBATION): inactive; negative
- mutagenic call (Test System: AMES SALMONELLA TYPHIMURIUM, Strain/Indicator: TA1537, Metabolic Activation: HAMSTER, LIVER, S-9, AROCLOR 1254 (10%), Method: PREINCUBATION): inactive; negative
- mutagenic call (Test System: AMES SALMONELLA TYPHIMURIUM, Strain/Indicator: TA1537, Metabolic Activation: NONE, Method: PREINCUBATION): inactive; negative
- mutagenic call (Test System: AMES SALMONELLA TYPHIMURIUM, Strain/Indicator: TA1537, Metabolic Activation: RAT, LIVER, S-9, AROCLOR 1254 (10%), Method: PREINCUBATION): inactive; negative

SMILES: COc1cc(C[C@H]2COC(=O)[C@@H]2Cc2ccc(O)c(OC)c2)ccc1O
- mutagenic call (Test System: CHINESE HAMSTER V79 CELLS, Strain/Indicator: V79 CELLS (HPRT)/6-THIOGUANINE, Metabolic Activation: NONE, Method: SUSPENSION/PLATE): inactive; negative
- mutagenic call (Test System: CHINESE HAMSTER V-79, Strain/Indicator: V-79(HPRT)/THIOGUANINE, Metabolic Activation: NONE): inactive; negative

SMILES: OCc1cc2cccc3ccc4cc5ccccc5c1c4c32
- mutagenic call [3]: inactive; negative
- mutagenic call [4]: inactive; negative

SMILES: Cc1cc(C)c2c(ccc3ccccc32)c1
- mutagenic call [3]: inactive; negative
- mutagenic call (Test System: AMES SALMONELLA TYPHIMURIUM, Strain/Indicator: TA98, Metabolic Activation: RAT, LIVER, S-9, AROCLOR 1254, Method: STANDARD PLATE): inactive; negative
- mutagenic call [4]: inactive; negative
- mutagenic call (Test System: AMES SALMONELLA TYPHIMURIUM, Strain/Indicator: TA100, Metabolic Activation: RAT, LIVER, S-9, AROCLOR 1254, Method: STANDARD PLATE): active; positive

SMILES: CCn1cc(C(=O)O)c(=O)c2cc(F)c(N3CCNCC3)cc21
- mutagenic call (End Point: In vitro micronucleus, Test System: WTK-1 human lymphoma cells, Metabolic Activation: None): active; positive
- mutagenic call [1]: inactive; negative
- mutagenic call (Test System: AMES SALMONELLA TYPHIMURIUM, Strain/Indicator: TA98, Metabolic Activation: RAT LIVER S-9, AROCLOR 1254, Method: PREINCUBATION): inactive; negative
- mutagenic call [2]: inactive; negative
- mutagenic call (Test System: AMES SALMONELLA TYPHIMURIUM, Strain/Indicator: TA100, Metabolic Activation: RAT LIVER S-9, AROCLOR 1254, Method: PREINCUBATION): inactive; negative
- mutagenic call (Test System: AMES SALMONELLA TYPHIMURIUM, Strain/Indicator: TA102, Metabolic Activation: NONE, Method: PREINCUBATION): active; positive
- mutagenic call (Test System: AMES SALMONELLA TYPHIMURIUM, Strain/Indicator: TA102, Metabolic Activation: NONE, Method: STANDARD PLATE): active; positive
- mutagenic call (Test System: AMES SALMONELLA TYPHIMURIUM, Strain/Indicator: TA102, Metabolic Activation: RAT LIVER S-9, AROCLOR 1254, Method: PREINCUBATION): active; positive
- mutagenic call (Test System: AMES SALMONELLA TYPHIMURIUM, Strain/Indicator: TA102, Metabolic Activation: RAT LIVER S-9, AROCLOR 1254, Method: STANDARD PLATE): active; positive
- mutagenic call (Test System: AMES SALMONELLA TYPHIMURIUM, Strain/Indicator: TA104, Metabolic Activation: NONE, Method: PREINCUBATION): active; positive
- mutagenic call (Test System: AMES SALMONELLA TYPHIMURIUM, Strain/Indicator: TA104, Metabolic Activation: RAT LIVER S-9, AROCLOR 1254, Method: PREINCUBATION): active; positive
- mutagenic call (Test System: AMES SALMONELLA TYPHIMURIUM, Strain/Indicator: UHT8414, Metabolic Activation: NONE, Method: PREINCUBATION): inactive; negative
- mutagenic call (Test System: AMES SALMONELLA TYPHIMURIUM, Strain/Indicator: UHT8414, Metabolic Activation: RAT LIVER S-9, AROCLOR 1254, Method: PREINCUBATION): inactive; negative
- mutagenic call (Test System: Ames Salmonella typhimurium, Strain/Indicator: TA102, Metabolic Activation: Rat, Liver, S9, Aroclor 1254, Method: Preincubation): active; positive. vitamin e (alpha-tocoferol) induced a statistically significant reduct
- mutagenic call (Test System: CHINESE HAMSTER V-79, Strain/Indicator: V-79 (HPRT)/6-THIOGUANINE, Metabolic Activation: NONE): inactive; negative
- mutagenic call (Test System: MOUSE LYMPHOMA, Strain/Indicator: L5178Y (HPRT)/6-THIOGUANINE, Metabolic Activation: NONE, Method: FLUCTUATION TEST): inactive; negative
- mutagenic call (Test System: MOUSE LYMPHOMA, Strain/Indicator: L5178Y (TK+/TK-), Metabolic Activation: NONE, Method: FLUCTUATION TEST): inactive; negative

SMILES: CC(=O)Oc1c(OC(C)=O)c2c([N+](=O)[O-])ccc3c4ccccc4c4cccc1c4c23
- mutagenic call (Test System: AMES SALMONELLA TYPHIMURIUM, Strain/Indicator: TA98, Metabolic Activation: NONE', Method: STANDARD PLATE): active; positive
- mutagenic call [4]: active; positive

SMILES: O=C(N=c1sn(C(=O)c2ccc([N+](=O)[O-])cc2)c2ccc([N+](=O)[O-])cc12)c1ccc([N+](=O)[O-])cc1
- mutagenic call (Test System: AMES SALMONELLA TYPHIMURIUM, Strain/Indicator: TA100, Metabolic Activation: S-9, Method: STANDARD PLATE): active; positive

SMILES: Nc1cccc2c1ccc1ccccc12
- mutagenic call (Test System: AMES SALMONELLA TYPHIMURIUM, Strain/Indicator: TA98, Metabolic Activation: RAT, LIVER, S-9, AROCLOR 1254 (2 OR 4%), Method: STANDARD PLATE): active; positive
- mutagenic call (Test System: AMES SALMONELLA TYPHIMURIUM, Strain/Indicator: TA100, Metabolic Activation: RAT, LIVER, S-9, AROCLOR 1254 (2%), Method: STANDARD PLATE): active; positive
- mutagenic call (Test System: AMES SALMONELLA TYPHIMURIUM, Strain/Indicator: TA1535, Metabolic Activation: RAT, LIVER, S-9, AROCLOR 1254 (2%), Method: STANDARD PLATE): inactive; negative
- mutagenic call (Test System: AMES SALMONELLA TYPHIMURIUM, Strain/Indicator: TA1537, Metabolic Activation: RAT, LIVER, S-9, AROCLOR 1254 (2%), Method: STANDARD PLATE): active; positive
